Experimental findings from patent US4337199A, “Antibiotic β-lactam compounds, production thereof, and their use as antimicrobial agent” (Sanraku-Ocean Co., Ltd., priority 1978, dated 1982) are described below.

What all share (assay): minimum inhibitory concentration, agar dilution assay
Holding throughout (format): cell-based

One experiment deals with Proteus sp. P22. Conditions: agar dilution, 35° C., 20 hours; read-out: minimum inhibitory concentration. As to the method:
(§1) The antibiotic activities shown in Tables I-1 to I-8 above were determined in the following manner.
(§2) The minimum inhibitory concentrations of the compounds of formula (I-a-1) or (I-b-1) in Tables I-1 to I-7 and the known compounds in Table I-8 on the various microorganisms shown in the above tables were measured by an agar dilution assay method using a brain heart infusion agar medium "Difco" (a product of Difco Laboratories Inc.)
(§3) A sample of the test compound was dissolved in sterile distilled water and diluted to prepare a two-fold dilution series of the compound solution. In a petri plate of 9 cm diameter, 1 ml of the compound solution was added to 9 ml of molten sterile heart infusion agar medium (Difco Laboratories Inc.) at about 60° C. to prepare the compound-containing agar plate. An overnight culture of each test organism indicated in the above table which was prepared by stationary cultivation in Trypto-Soy broth (Eiken Chemi. Co., Ltd.) at 35° C. for 18 to 20 hours, was diluted with the Trypto-Soy broth to give approximately 10^8 cells/ml and the diluted inoculum was inoculated onto the compound-containing agar plates. After cultivating the plates at 35° C. for 20 hours, the growth of the organism was observed. The minimum concentration of the compound at which no growth of the microorganism was noted was determined, and defined as the minimum inhibitory concentration of the test compound.

For a further experiment, the system named is Providencia sp. P8. The following applies: SP.P8, agar dilution, 35° C., 20 hours, read-out: minimum inhibitory concentration. As to the method:
as §1, §2, §3
Background: Agar dilution tests growth on a series of plates holding different concentrations.

Another experiment concerns Serratia marcescens S18. Conditions: S18, agar dilution, 35° C., 20 hours, read-out: minimum inhibitory concentration. As to the method: as §1, §2, §3
In experiment [1] the test system is Staphylococcus aureus Russell. Conditions: agar dilution, 35° C., 20 hours, read-out: minimum inhibitory concentration. The protocol:
as §1, §2, §3

For another experiment, the system named is Sarcina lutea. Conditions: Micrococcus luteus; agar dilution, 35° C., 20 hours; read-out: minimum inhibitory concentration. The protocol:
as §1, §2, §3

The subject of experiment [2] is Comamonas terrigena B-996. The following applies: B996, agar dilution, 35° C., 20 hours, read-out: minimum inhibitory concentration. As to the method: as §1, §2, §3
For experiment [3], the system named is Citrobacter freundii GN 346. Conditions: GN346, agar dilution, 35° C., 20 hours, read-out: minimum inhibitory concentration. As to the method: as §1, §2, §3
Experiment [4] concerns Enterobacter aerogenes E19. The following applies: Klebsiella aerogenes, E19; agar dilution, 35° C., 20 hours; read-out: minimum inhibitory concentration. The protocol:
as §1, §2, §3

Experiment [5] concerns Bacillus subtilis ATCC 6633. The following applies: ATCC6633, agar dilution, 35° C., 20 hours, read-out: minimum inhibitory concentration. The protocol:
as §1, §2, §3

The test system of the next experiment is Enterobacter cloacae 45. Conditions: Enterobacter cloacae, 45; agar dilution, 35° C., 20 hours; read-out: minimum inhibitory concentration. As to the method:
as §1, §2, §3

The subject of experiment [6] is Pseudomonas aeruginosa IFO3445. The following applies: IFO3445, agar dilution, 35° C., 20 hours, read-out: minimum inhibitory concentration. The protocol:
as §1, §2, §3

The test system of the next experiment is Proteus rettgeri P7. The following applies: Providencia rettgeri, P7; agar dilution, 35° C., 20 hours; read-out: minimum inhibitory concentration. The protocol:
as §1, §2, §3

Another experiment deals with Proteus mirabilis P6. Conditions: P6, agar dilution, 35° C., 20 hours, read-out: minimum inhibitory concentration. The protocol:
as §1, §2, §3

Another experiment concerns Escherichia coli K-12. Conditions: K12, agar dilution, 35° C., 20 hours, read-out: minimum inhibitory concentration. The protocol:
as §1, §2, §3

For experiment [7], the system named is Klebsiella pneumoniae K-13. The following applies: K13, agar dilution, 35° C., 20 hours, read-out: minimum inhibitory concentration. As to the method: as §1, §2, §3
In experiment [8] the test system is Staphylococcus epidermidis. Conditions: agar dilution, 35° C., 20 hours, read-out: minimum inhibitory concentration. The protocol:
as §1, §2, §3

For experiment [9], the system named is Staphylococcus aureus FDA 209P. The following applies: FDA209P, agar dilution, 35° C., 20 hours, read-out: minimum inhibitory concentration. The protocol: as §1, §2, §3
The test system of experiment [10] is Staphylococcus aureus Smith. The following applies: agar dilution, 35° C., 20 hours, read-out: minimum inhibitory concentration. The protocol:
as §1, §2, §3

Experiment [11] concerns Pseudomonas aeruginosa NCTC10490. The following applies: NCTC10490, agar dilution, 35° C., 20 hours, read-out: minimum inhibitory concentration. As to the method:
as §1, §2, §3

Another experiment has as its system Proteus vulgaris GN76. The following applies: GN76, agar dilution, 35° C., 20 hours, read-out: minimum inhibitory concentration. The protocol: as §1, §2, §3
Another experiment deals with Alcaligenes faecalis A 1. The following applies: A1, agar dilution, 35° C., 20 hours, read-out: minimum inhibitory concentration. As to the method:
as §1, §2, §3

The subject of another experiment is Enterobacter sp. E8. Conditions: SP.E8, agar dilution, 35° C., 20 hours, read-out: minimum inhibitory concentration. As to the method:
as §1, §2, §3

The test system of the next experiment is Serratia marcescens T55. The following applies: T55, agar dilution, 35° C., 20 hours, read-out: minimum inhibitory concentration. As to the method: as §1, §2, §3
A further experiment deals with Escherichia coli RGN 823. The following applies: RGN823, agar dilution, 35° C., 20 hours, read-out: minimum inhibitory concentration. The protocol:
as §1, §2, §3

≈ marks a conversion by molar mass, not a printed value.

For `CC(C)C1C(=O)N2C(C(=O)O)=C(Sc3ncccn3)CC12` (stereo not drawn) [Example 62, 3-(2-Pyrimidinylthio)-6-isopropyl-7-oxo-1-azabicyclo[3.2.0]hept-2-ene-2-carboxylic acid], the MIC with Proteus sp. P22 came to 12.5 µg/mL (≈ 40.9 µM); with Providencia sp. P8 it was 1.56 µg/mL (≈ 5.11 µM); in the experiment on Serratia marcescens S18, 25 µg/mL (≈ 81.9 µM); in experiment [1] it was 0.013 µg/mL (≈ 0.0426 µM); in the experiment with Sarcina lutea, 0.013 µg/mL (≈ 0.0426 µM); in experiment [2] it was 0.013 µg/mL (≈ 0.0426 µM). Moreover, the MIC is 50 µg/mL (≈ 164 µM) in [3]; greater than 100 µg/mL in [4]; 0.013 µg/mL (≈ 0.0426 µM) in [5]; greater than 100 µg/mL with Enterobacter cloacae 45; 25 µg/mL (≈ 81.9 µM) in experiment [6]; 3.13 µg/mL (≈ 10.3 µM) with Proteus rettgeri P7. For the same compound, the MIC with Proteus mirabilis P6 was 3.13 µg/mL (≈ 10.3 µM); in the experiment on Escherichia coli K-12, 6.25 µg/mL (≈ 20.5 µM); in experiment [7] it was 25 µg/mL (≈ 81.9 µM); in experiment [8], 0.05 µg/mL (≈ 0.164 µM); in experiment [9] it was 0.007 µg/mL (≈ 0.0229 µM); in experiment [10] it was 0.025 µg/mL (≈ 0.0819 µM). Besides, the MIC in experiment [11] is 25 µg/mL (≈ 81.9 µM); with Proteus vulgaris GN76 it was 12.5 µg/mL (≈ 40.9 µM); with Alcaligenes faecalis A 1, 0.39 µg/mL (≈ 1.28 µM); in the experiment on Enterobacter sp. E8 it was 12.5 µg/mL (≈ 40.9 µM); with Serratia marcescens T55 it was greater than 100 µg/mL; in the experiment with Escherichia coli RGN 823, 3.13 µg/mL (≈ 10.3 µM).

For `CC(O)[C@H]1C(=O)N2C(C(=O)O)=C(Sc3ncccn3)C[C@H]12` (stereo partly drawn) [Example 63, 5,6-trans-3-(2-Pyrimidinylthio)-6-(1-hydroxyethyl)-7-oxo-1-azabicyclo[3.2.0]hept-2-ene-2-carboxylic acid], the MIC in the experiment on Proteus sp. P22 is 12.5 µg/mL (≈ 40.7 µM); with Providencia sp. P8, 0.78 µg/mL (≈ 2.54 µM); in the experiment with Serratia marcescens S18 it was 50 µg/mL (≈ 163 µM); in experiment [1] it was 0.39 µg/mL (≈ 1.27 µM); in the experiment on Sarcina lutea, 0.2 µg/mL (≈ 0.651 µM); in [2], 0.05 µg/mL (≈ 0.163 µM). Also, the MIC came to 100 µg/mL (≈ 325 µM) in experiment [3]; 100 µg/mL (≈ 325 µM) in experiment [4]; 0.39 µg/mL (≈ 1.27 µM) in experiment [5]; 50 µg/mL (≈ 163 µM) in the experiment on Enterobacter cloacae 45; 12.5 µg/mL (≈ 40.7 µM) in experiment [6]; 12.5 µg/mL (≈ 40.7 µM) in the experiment on Proteus rettgeri P7. Also, the MIC in the experiment with Proteus mirabilis P6 came to 12.5 µg/mL (≈ 40.7 µM); in the experiment on Escherichia coli K-12 it was 1.56 µg/mL (≈ 5.08 µM); in experiment [7] it was 25 µg/mL (≈ 81.3 µM); in experiment [8] it was 0.39 µg/mL (≈ 1.27 µM); in experiment [9], 0.2 µg/mL (≈ 0.651 µM); in experiment [10], 0.39 µg/mL (≈ 1.27 µM). For the same compound, the MIC in experiment [11] was 12.5 µg/mL (≈ 40.7 µM); in the experiment on Proteus vulgaris GN76 it was 12.5 µg/mL (≈ 40.7 µM); in the experiment with Alcaligenes faecalis A 1 it was 1.56 µg/mL (≈ 5.08 µM); with Enterobacter sp. E8, 6.25 µg/mL (≈ 20.3 µM); with Serratia marcescens T55, 100 µg/mL (≈ 325 µM); in the experiment with Escherichia coli RGN 823, 3.13 µg/mL (≈ 10.2 µM).

For `CC(O)[C@H]1C(=O)N2C(C(=O)O)=C(Sc3ccccn3)C[C@H]12` (stereo partly drawn), the MIC with Proteus sp. P22 is 12.5 µg/mL (≈ 40.8 µM); in the experiment with Providencia sp. P8 it was 3.13 µg/mL (≈ 10.2 µM); with Serratia marcescens S18, 50 µg/mL (≈ 163 µM); in experiment [1], 0.39 µg/mL (≈ 1.27 µM); with Sarcina lutea it was 0.013 µg/mL (≈ 0.0424 µM); in experiment [2] it was 0.2 µg/mL (≈ 0.653 µM). The MIC in experiment [3] was 100 µg/mL (≈ 326 µM); in experiment [4] it was greater than 100 µg/mL; in experiment [5], 0.78 µg/mL (≈ 2.55 µM); in the experiment on Enterobacter cloacae 45, 100 µg/mL (≈ 326 µM); in experiment [6], 12.5 µg/mL (≈ 40.8 µM); with Proteus rettgeri P7, 25 µg/mL (≈ 81.6 µM). For the same compound, the MIC with Proteus mirabilis P6 amounted to 12.5 µg/mL (≈ 40.8 µM); with Escherichia coli K-12, 6.25 µg/mL (≈ 20.4 µM); in [7] it was 50 µg/mL (≈ 163 µM); in [8], 1.56 µg/mL (≈ 5.09 µM); in [9] it was 0.05 µg/mL (≈ 0.163 µM); in experiment [10] it was 0.39 µg/mL (≈ 1.27 µM). For the same compound, the MIC in [11] turned out to be 25 µg/mL (≈ 81.6 µM); in the experiment on Proteus vulgaris GN76, 25 µg/mL (≈ 81.6 µM); in the experiment with Alcaligenes faecalis A 1, 0.78 µg/mL (≈ 2.55 µM); in the experiment on Enterobacter sp. E8, 25 µg/mL (≈ 81.6 µM); with Serratia marcescens T55, 100 µg/mL (≈ 326 µM); with Escherichia coli RGN 823, 12.5 µg/mL (≈ 40.8 µM).
